This passage reports MIC and Activity results from ChEMBL document CHEMBL2331078, “Quantitative purity-activity relationships of natural products: the case of anti-tuberculosis active triterpenes from Oplopanax horridus” (2013).

≈ marks a conversion by molar mass, not a printed value. Calls of active or inactive are those of the source. No cut-off for these calls is given here.

As a reminder, the MIC is the least concentration at which growth counts as inhibited. A low value points to inhibition by little substance.

Test [1] concerns Mycobacterium tuberculosis. Nature of the test: Antimycobacterial activity against Mycobacterium tuberculosis. The class given is functional.
The test system of test [2] is Mycobacterium tuberculosis. The experiment in a line: Antimycobacterial activity against Mycobacterium tuberculosis H37Rv ATCC 27294 by Alamar blue assay. The class given is functional, organism-based.

`C=C(C)[C@@H]1CC[C@]2(C(=O)O)CC[C@]3(C)[C@H](CC[C@@H]4[C@@]5(C)CC[C@H](O)C(C)(C)[C@@H]5CC[C@]43C)[C@@H]12` [BETULINIC ACID] showed an MIC in test [1] of 62 µg/mL (≈ 136 µM). `CC1(C)CC[C@]2(C(=O)O)CC[C@]3(C)C(=CC[C@@H]4[C@@]5(C)CC[C@@H](O)[C@@](C)(C(=O)O)[C@@H]5CC[C@]43C)[C@@H]2C1`: the result in test [2] was Active. For the compound `C=C(C)[C@@H]1CC[C@]2(C(=O)O)CC[C@]3(C)[C@H](CC[C@@H]4[C@@]5(C)CC[C@@H](O)[C@@](C)(C(=O)O)[C@@H]5CC[C@]43C)[C@@H]12`, the result in test [2] was Active. Further, in test [1], the MIC worked out at 54 µg/mL (≈ 111 µM).

With `CC1(C)CC[C@]2(C(=O)O)CC[C@]3(C)C(=CC[C@@H]4[C@@]5(C)CC[C@H](O)C(C)(C)[C@@H]5CC[C@]43C)[C@@H]2C1` [OLEANOLIC_ACID], the minimal inhibitory concentration (MIC) in test [1] turned out to be 29 µg/mL (≈ 63.5 µM).
